How the values were obtained:
[1] = tested on: houseflies (Musca domestica); experiment: Mortality test against houseflies by topical application method (Test Example 1); type: in vivo; conditions: female adult houseflies, 24 hours, 25° C.
Procedure: Each test compound was accurately weighed and a 1% solution and a 0.1% solution of the sample in acetone were prepared. A 1 μl portion of either of the above solutions was micropipetted onto the thoracic dorsal part of each female adult housefly (Musca domestica) under ether anaesthesia and the fly was released in a high-walled dish together with feed. The dish was covered with a metal-wire net and maintained at 25° C. After 24 hours, the test flies were inspected for deaths and the mortality (%) was calculated. Thirty test flies were used per concentration group.

guppies = experiment: Fish toxicity test (Test Example 6); type: in vivo; conditions: female guppies, 48 hours, 25° C.; concentration at which 90% or more were killed
Procedure: To 5 l of water were added 250 mg of sorpol SM-200 (registered trademark, Toho Chemical Co., Ltd.) or Tween-20 (commercial product) as an emulsifier (surfactant) as well as 2.5 ml of an acetone solution containing one of the test compounds in a predetermined concentration. The mixture was stirred well to prepare a test water. Ten female guppies from 3 to 4 months of age were released into the test water and maintained at 25° C. The concentration of the test compound at which 90% or more of the guppies were killed during the ensuring 48 hours was determined. (This concentration is referred to as LC90).

[2] = Light stability test (Test Example 4); type: physicochemical; conditions: direct sunlight between glass plates, 12° C., relative to aluminum foil-covered control; for remaining at 4 h: read-out: Residue (%) Exposure time 4 hrs.; for remaining at 8 h: read-out: Residue (%) Exposure time 8 hrs.
Procedure: Into 2.0 ml of acetone were dissolved 80 mg of each test compound. A 5 μl portion of the solution was taken and spread on a glass plate (Micro Standard Cover Glass, 18 m/m No. 1, 200 pcs, Matsunami Glass Ind., Ltd.) and the acetone was evaporated. Then, a similar glass plate was superimposed on the above plate in such a manner that the test liquid was sandwitched. The specimen was exposed to direct sunlight at an atmospheric temperature of 12° C. for a predetermined exposure time. As an unexposed control, a similar specimen was covered with an aluminum foil. The test liquid was washed away with 1.0 ml of methanol containing 0.04% of dioctyl phthalate as an internal reference and high-speed liquid chromatography was carried out on the washings to determine the residual amount of the test compound. The residue (%) was calculated with the value for the aluminum foil-covered control specimen as the standard.

[3] = Hydrolysis resistance test (Test Example 5); type: physicochemical; conditions: acetone/water, reflux for 2 days; read-out: Residue (%)
Procedure: Into about 8 ml of acetone were dissolved 100 mg of each test compound and, then, 1.0 g of water was added to this solution to prepare a mixed solution. This mixed solution was refluxed for 2 days. After concentration to about one half of the original volume and with the addition of dioctyl phthalate as an internal reference, the residual amount of the compound was determined by high-speed liquid chromatography. The residue (%) was then calculated.

[4] = tested on: cockroaches (Blattella germanica); experiment: Mortality test against cockroaches by topical application method (Test Example 3); type: in vivo; conditions: 1 μl of 1% solution in acetone, female cockroaches, 24 hours, 25° C.
Procedure: Each test compound was accurately weighed and made in a 1% solution in acetone. Then, 1 μl of the above solution was micropipetted onto the abdominal part of each female cockroach (Blattella germanica) under ether anaesthesia. The roaches were released in a high-walled dish together with feed and, after the disk was covered with a metal wire net, same was maintained at 25° C. Fifteen roaches per group were employed. After 24 hours, the test roaches were inspected for deaths and the mortality (%) for each group was calculated.

green rice leafhoppers = experiment: Spray test on rice seedlings against green rice leafhoppers (Utility Example 1); type: in vivo, green rice leafhoppers (Nephotettix cincticeps); conditions: 30% emulsifiable concentrate (Formulation Example 5) diluted 300-fold, 10 ml/pot, 24 hours
Procedure: To 30 parts of each of Compounds [1], [2], [5] to [13] and [17] to [19] was added 50 parts of xylene and 20 parts of Sorpol SM-200 (a surfactant, trademark of Toho Chemical Co., Ltd.). The mixture was stirred well and dissolved to obtain a 30% emulsifiable concentrate.
The emulsifiable concentrate prepared from Compounds [1], [2], [6], [7], [9], [10], [12] and [13] in Formulation Example 5 were each diluted 300-fold with water. Then, each of the dilutions was sprayed over rice seedlings 25 days after sowing at the rate of 10 ml/pot. The pot was covered with a wire-net and 15 green rice leafhoppers were released under the net. After 24 hours, the leafhoppers were examined for deaths. The mortality (%) was not less than 90% for each of Compounds [1], [2], [6], [7], [9], [10], [12] and [13].

house-flies = experiment: Settling mist mortality test against houseflies, oil preparations of Formulation Example 3 (Utility Example 4); type: in vivo, houseflies (Musca domestica); conditions: oil preparation with 0.1 part compound and 0.08 part permethrin per 100 parts, 24 hours
Procedure: To 0.1 part of each of Compounds [1] to [28] was added 0.08 part of permethrin, followed by the addition of a sufficient amount of kerosene to make 100 parts. The mixture was stirred to obtain an oil preparation of each compound.
(§1) By the settling mist method, a mortality test against house-flies was carried out using the oil preparations obtained in Formulation Example 3 from Compounds [1], [2], [5] to [11] and [17]. After 24 hours, the flies were examined for deaths. The mortality (%) was not less than 90% for each of Compounds [1], [2], [5] to [11] and [17].

houseflies = experiment: Settling mist mortality test against houseflies, oil preparations of Formulation Example 2 (Utility Example 3); type: in vivo, houseflies (Musca domestica); conditions: oil preparation with 0.1 part compound and 0.1 part resmethrin per 100 parts, 24 hours
Procedure: To 0.1 part of each of Compounds [1] to [17] was added 0.1 part of resmethrin, followed by the addition of a sufficient amount of kerosene to make 100 parts. The mixture was stirred to obtain an oil preparation of each compound.
as §1, with “houseflies” for “house-flies”, “made” for “obtained”, “2” for “3”

[5] = tested on: green rice leafhoppers (Nephotettix cincticeps); experiment: Mortality test against green rice leafhoppers by topical application method (Test Example 2); type: in vivo; conditions: 0.1% solution in acetone, female adults, 24 hours, 25° C.
Procedure: Each test compound was accurately weighed and an 0.1% solution in acetone was prepared. Female adults of green rice leafhopper (Nephotettix cincticeps) were anaesthetized with carbon dioxide gas and 0.5 µl of the above solution was micropipetted onto the thoracic abdominal part of each leafhopper. Then, the test leafhoppers were kept at 25° C. with access to rice plant seedlings. Each group comprised 15 green rice leafhoppers. After 24 hours, the leafhoppers were inspected for deaths and the mortality (%) was calculated for each compound.

SMILES	Mortality (%) 1 μg/fly [1] [%]	LC90 (guppies)	remaining at 4 h [2] [%]	remaining at 8 h [2] [%]	Mortality (%) 10 μg/fly [1] [%]	remaining at 48 h [3] [%]	mortality at 1 %, 0.01 mg [4] [%]	Mortality (%) (green rice leafhoppers)	Mortality (%) (house-flies)	Mortality (%) (houseflies)	mortality at 0.1 % [5] [%]
C=CCC1=C(C)C(OC(=O)C2C(C=C(C)C)C2(C)C)CC1=O (stereo not drawn) [Allethrin, reference compound]	50	Not more than 0.5 ppm	35	17							
CC(C)C(CC=C(Cl)Cl)C(=O)OCc1cccc(Oc2ccccc2)c1 (stereo not drawn) [Compound [5], 3-Phenoxybenzyl α-(3,3-dichloroallyl)isovalerate]	100		99	98	100						
CC(C)C(CC=C(Cl)Cl)C(=O)OC(C#N)c1cccc(Oc2ccccc2)c1 (stereo not drawn) [Compound [6], α-Cyano-3-phenoxybenzyl α-(3,3-dichloroallyl)isovalerate]	100		92	92	100	> 90	100	not less than 90%			
C#CC(OC(=O)C(CC=C(Cl)Cl)C(C)C)c1cccc(Oc2ccccc2)c1 (stereo not drawn) [Compound [7], α-Ethynyl-3-phenoxybenzyl α-(3,3-dichloroallyl)isovalerate]	90		96	96	100	> 90	80	not less than 90%			
CC(C)C(CC=C(Br)Br)C(=O)OCc1cccc(Oc2ccccc2)c1 (stereo not drawn) [Compound [8], 3-Phenoxybenzyl α-(3,3-dibromoallyl)isovalerate]	100				100						
CC(C)C(CC=C(Br)Br)C(=O)OC(C#N)c1cccc(Oc2ccccc2)c1 (stereo not drawn) [Compound [9], α-Cyano-3-phenoxybenzyl α-(3,3-dibromoallyl)isovalerate]	100				100			not less than 90%			
C#CC(OC(=O)C(CC=C(Br)Br)C(C)C)c1cccc(Oc2ccccc2)c1 (stereo not drawn) [Compound [10], α-Ethynyl-3-phenoxybenzyl α-(3,3-dibromoallyl)isovalerate]	100	≥ 10 ppm	97	97	100			not less than 90%			
CC(C)(CC=C(Cl)Cl)CC(=O)OCc1cccc(Oc2ccccc2)c1 [Compound [11], 3-Phenoxybenzyl β-(3,3-dichloroallyl)isovalerate]	100		100	96	100	> 90					
CC(C)(CC=C(Cl)Cl)CC(=O)OC(C#N)c1cccc(Oc2ccccc2)c1 (stereo not drawn) [Compound [12], α-Cyano-3-phenoxybenzyl β-(3,3-dichloroallyl)isovalerate]	100		92	90	100	> 90		not less than 90%			
C#CC(OC(=O)CC(C)(C)CC=C(Cl)Cl)c1cccc(Oc2ccccc2)c1 (stereo not drawn) [Compound [13], α-Ethynyl-3-phenoxybenzyl β-(3,3-dichloroallyl)isovalerate]	90		100	100	100			not less than 90%			
CC(C)(CC(=O)OCc1cccc(Oc2ccccc2)c1)C(Cl)C=C(Cl)Cl (stereo not drawn) [Compound [17], 3-Phenoxybenzyl β-(1,3,3-trichloroallyl)isovalerate]	100		100	100	100				not less than 90%	not less than 90%	
CC(C)(CC(=O)OC(C#N)c1cccc(Oc2ccccc2)c1)C(Cl)C=C(Cl)Cl (stereo not drawn) [Compound [18], α-Cyano-3-phenoxybenzyl β-(1,3,3-trichloroallyl)isovalerate]			98	97	100	> 90					
C#CC(OC(=O)CC(C)(C)C(Cl)C=C(Cl)Cl)c1cccc(Oc2ccccc2)c1 (stereo not drawn) [Compound [19], α-Ethynyl-3-phenoxybenzyl β-(1,3,3-trichloroallyl)isovalerate]			97	92	100						
C=CCC(C(=O)OCc1cccc(Oc2ccccc2)c1)C(C)C (stereo not drawn) [reference compound]	0				0						
CC(C)=CCC(C(=O)OCc1cccc(Oc2ccccc2)c1)C(C)C (stereo not drawn) [reference compound]	0										
CC(C)C(C=C(Cl)Cl)C(=O)OCc1cccc(Oc2ccccc2)c1 (stereo not drawn) [reference compound]											40
